Data on 23 compounds can be found in ChEMBL document CHEMBL3217472, “Identification of novel urea derivatives as PTP1B inhibitors: synthesis, biological evaluation and structureactivity relationships” (Medchemcomm, 2013).

Test [1] addresses T1, Tyrosine-protein phosphatase non-receptor type 1 (Homo sapiens) (UniProt P18031).
T1 sequence (whole entry): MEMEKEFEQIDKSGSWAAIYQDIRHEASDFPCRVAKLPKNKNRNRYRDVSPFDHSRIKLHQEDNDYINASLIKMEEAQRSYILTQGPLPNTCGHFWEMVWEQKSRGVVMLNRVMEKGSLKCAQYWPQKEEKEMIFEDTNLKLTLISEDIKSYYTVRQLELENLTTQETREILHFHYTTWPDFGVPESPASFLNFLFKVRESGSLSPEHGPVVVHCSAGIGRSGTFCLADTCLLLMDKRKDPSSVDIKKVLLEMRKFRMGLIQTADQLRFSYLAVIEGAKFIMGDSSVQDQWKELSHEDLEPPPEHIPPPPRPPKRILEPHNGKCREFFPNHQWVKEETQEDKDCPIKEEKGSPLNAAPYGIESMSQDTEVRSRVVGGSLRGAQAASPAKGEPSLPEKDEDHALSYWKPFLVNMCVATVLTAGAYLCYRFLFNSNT
The test is described as follows: Inhibition of human recombinant PTP1B using phosphopeptide as substrate at 10 uM after 30 mins by malachite green assay relative to control.

Test [2] relates to Rattus norvegicus. The test is described as follows: Antihyperglycemic activity in streptozotocin-induced Sprague-Dawley albino rat diabetic model assessed as reduction of blood glucose AUC (0 to 5 hrs) at 100 mg/kg, po by glucometer relative to control. Type of test: functional. The arrangement: scale not given: the % may be the effect or the level left.
Test [3] has as its system Rattus norvegicus. The test is described as follows: Antihyperglycemic activity in streptozotocin-induced Sprague-Dawley albino rat diabetic model assessed as reduction of blood glucose AUC (0 to 24 hrs) at 100 mg/kg, po by glucometer relative to control. The arrangement: scale not given: the % may be the effect or the level left. Type of test: functional.
Test [4] deals with T2, Tyrosine-protein phosphatase non-receptor type 1 (Homo sapiens, UniProt P18031).
T2 sequence (P18031 whole entry): T1 sequence (whole entry)
Briefly: Inhibition of human recombinant PTP1B using phosphopeptide as substrate after 30 mins by malachite green assay.

For test [5], the system named is Mus musculus. The test is described as follows: Antidiabetic activity in C57BL/Ks db/db mouse assessed as normalization of fasting blood glucose level at 30 mg/kg relative to vehicle-treated sham control. Type of test: functional.
The target of test [6] is T2, Tyrosine-protein phosphatase non-receptor type 1. Briefly: Competitive inhibition of human recombinant PTP1B using IR5 as substrate by Lineweaver-Burk plot analysis.
In test [7] the test system is Mus musculus. Briefly: Antihyperglycemic activity in C57BL/Ks db/db mouse assessed as reduction of blood glucose AUC (0 to 120 mins) at 30 mg/kg measured on day 15 by OGTT relative to vehicle-treated sham control. In kind it is functional.
Test [8] concerns Mus musculus. Briefly: Antihyperglycemic activity in C57BL/Ks db/db mouse assessed as reduction of blood glucose AUC (0 to 120 mins) at 30 mg/kg measured on day 10 by OGTT relative to vehicle-treated sham control. In kind it is functional.
The subject of test [9] is Mus musculus. The test is described as follows: Antidiabetic activity in C57BL/Ks db/db mouse assessed as restoration of altered insulin level in serum at 30 mg/kg relative to vehicle-treated sham control. In kind it is functional.
The subject of test [10] is Mus musculus. The test is described as follows: In vivo inhibition of PTP1B in skeletal muscle of C57BL/Ks db/db mouse assessed as upregulation of p-IRSI protein expression at 30 mg/kg, po by Western blot analysis relative to vehicle-treated sham control. In kind it is functional, Muscle tissue.
Test [11] has as its system Mus musculus. The test is described as follows: Antidyslipidemic activity in C57BL/Ks db/db mouse assessed as reduction of serum cholesterol level at 30 mg/kg measured on day 10 to 15 relative to vehicle-treated sham control. In kind it is functional.
Test [12] relates to Mus musculus. The test is described as follows: Antidyslipidemic activity in C57BL/Ks db/db mouse assessed as reduction of serum triglyceride level at 30 mg/kg measured on day 10 to 15 relative to vehicle-treated sham control. In kind it is functional.
In test [13] the test system is Mus musculus. Briefly: Antidyslipidemic activity in C57BL/Ks db/db mouse assessed as increase in serum HDL-cholesterol level at 30 mg/kg measured on day 10 to 15 relative to vehicle-treated sham control. Type of test: functional.
Test [14] deals with Mus musculus. Briefly: Antihyperglycemic activity in C57BL/Ks db/db mouse assessed as reduction of blood glucose level at 30 mg/kg measured from day 8 to day 14. Set-up: dose 30 mg/kg. In kind it is functional, organism-based.
The subject of test [15] is Mus musculus. Briefly: Antidiabetic activity in C57BL/Ks db/db mouse assessed as improvement of HOMA index at 30 mg/kg relative to vehicle-treated sham control. Type of test: functional.
Test [16] concerns Mus musculus. Briefly: Antidyslipidemic activity in C57BL/Ks db/db mouse assessed as reduction of serum triglyceride level at 10 mg/kg measured on day 10 to 15 relative to vehicle-treated sham control. In kind it is functional.
Test [17] deals with Mus musculus. The test is described as follows: Antidiabetic activity in C57BL/Ks db/db mouse assessed as normalization of fasting blood glucose level at 10 mg/kg relative to vehicle-treated sham control. In kind it is functional.
Test [18] deals with Mus musculus. The test is described as follows: Antihyperglycemic activity in C57BL/Ks db/db mouse assessed as reduction of blood glucose AUC (0 to 120 mins) at 10 mg/kg measured on day 10 by OGTT relative to vehicle-treated sham control. Type of test: functional.
Test [19] deals with Mus musculus. The test is described as follows: Antidyslipidemic activity in C57BL/Ks db/db mouse assessed as increase in serum HDL-cholesterol level at 10 mg/kg measured on day 10 to 15 relative to vehicle-treated sham control. Type of test: functional.
The subject of test [20] is Mus musculus. The test is described as follows: In vivo inhibition of PTP1B in skeletal muscle of C57BL/Ks db/db mouse assessed as upregulation of p-IRSI protein expression at 10 mg/kg, po by Western blot analysis relative to vehicle-treated sham control. In kind it is functional, Muscle tissue.
Test [21] deals with Mus musculus. The test is described as follows: Antidyslipidemic activity in C57BL/Ks db/db mouse assessed as reduction of serum cholesterol level at 10 mg/kg measured on day 10 to 15 relative to vehicle-treated sham control. In kind it is functional.
Test [22] deals with Mus musculus. Briefly: Antidiabetic activity in C57BL/Ks db/db mouse assessed as improvement of HOMA index at 10 mg/kg relative to vehicle-treated sham control. Type of test: functional.
The subject of test [23] is Mus musculus. The test is described as follows: Antidiabetic activity in C57BL/Ks db/db mouse assessed as restoration of altered insulin level in serum at 10 mg/kg relative to vehicle-treated sham control. In kind it is functional.
Test [24] relates to Mus musculus. The test is described as follows: Antihyperglycemic activity in C57BL/Ks db/db mouse assessed as reduction of blood glucose level at 10 mg/kg measured from day 6 to day 14. Type of test: functional, organism-based. Set-up: dose 10 mg/kg.
The test system of test [25] is Mus musculus. The test is described as follows: Antihyperglycemic activity in C57BL/Ks db/db mouse assessed as reduction of blood glucose AUC (0 to 120 mins) at 10 mg/kg, po measured on day 15 by OGTT relative to vehicle-treated sham control. In kind it is functional.

Active and inactive are the calls of the source. No cut-off for these calls is given here.

As for `O=C(NCc1ccccc1)NCc1ccc([N+](=O)[O-])cc1`, in test [1], the inhibition (commonly the percentage by which the read-out fell short of the control) was determined as 0.9%.

Turning to `Cc1ccc(C(=O)Nc2ccc(S(=O)(=O)O)c3cc(S(=O)(=O)O)cc(S(=O)(=O)O)c23)cc1NC(=O)c1cccc(NC(=O)Nc2cccc(C(=O)Nc3cc(C(=O)Nc4ccc(S(=O)(=O)O)c5cc(S(=O)(=O)O)cc(S(=O)(=O)O)c45)ccc3C)c2)c1`, the inhibition in test [1] amounted to 60%.

In the case of `COc1cc(CNC(=O)NCc2cccc([N+](=O)[O-])c2)cc(OC)c1OC`, the inhibition in test [1] amounted to 7.5%.

Take `CC(C)(C)c1cc(CNC(=O)NCc2ccccc2)c(O)c(C(C)(C)C)c1`: the inhibition in test [1] is 18.9%.

For `CC(=O)Nc1ccc(CNC(=O)NCc2ccccc2)cc1`, the inhibition in [1] was found to be 60.9%. Moreover, the Activity in the test on Rattus norvegicus [2] turned out to be 14.2%; in the test with Rattus norvegicus [3], 14.8%. Besides, the 50% inhibitory concentration (IC50) (as a rule, the concentration that gives 50% inhibition) in test [4] was 9.39 µM.

For `O=C(NCc1ccccc1)NCc1ccsc1`, the inhibition in test [1] is 31.2%.

With `CN(C)C(=N)NC(=N)N` [METFORMIN], the Activity in the test on Rattus norvegicus [2] worked out at 21%; in the test with Rattus norvegicus [3], 23.3%.

Turning to `O=C(NCc1ccccc1)NCc1cccc([N+](=O)[O-])c1`, the inhibition in test [1] is 2.4%.

Regarding `COc1cc(Cl)c(CNC(=O)NCc2ccccc2)c(Cl)c1OC`, the inhibition in test [1] was found to be 13.7%.

For the compound `O=C(NCc1cccc([N+](=O)[O-])c1)NCc1ccco1`, the inhibition in [1] amounted to 46.8%.

Consider `O=C(NCc1cccc(Cl)c1)NCc1cccc([N+](=O)[O-])c1`, for which the inhibition in test [1] amounted to 32.9%.

Consider `O=C(NCc1cccc([N+](=O)[O-])c1)NCc1ccc(-c2ccc([N+](=O)[O-])cc2)o1`, for which, in test [1], the inhibition was 68.4%. Further, the Activity in the test on Rattus norvegicus [2] was 18.4%; in the test with Rattus norvegicus [3], 20%. Moreover, the IC50 in [4] worked out at 8.06 µM.

With `O=C(NCc1cccc([N+](=O)[O-])c1)NCc1ccccc1[N+](=O)[O-]`, in test [1], the inhibition is 79.4%. Further, the Efficacy in the test on Mus musculus [5] worked out at 52.3%; in the test on Mus musculus [7] it was 35.9%; with Mus musculus [8], 24.1%; in the test on Mus musculus [9] it was 34.5%; in the test on Mus musculus [11] it was 16.3%; in the test with Mus musculus [12] it was 8.9%. Further, the Efficacy with Mus musculus [13] was determined as 46.8%; with Mus musculus [15], 69.7%. In addition, the Ki (usually the dissociation constant of the complex between target and ligand, obtained from inhibition or displacement) in test [6] was 7.88 µM. The Activity was determined as 20.4% in the test with Rattus norvegicus [2] and 21.7% in the test with Rattus norvegicus [3]. In addition, the “fold change (FC)” value in the test with Mus musculus [10] came to 1.25. Moreover, the 50% inhibitory concentration (IC50) in test [4] is 7.47 µM. Further, the outcome with Mus musculus [14] was Active.

As for `O=C(NCc1ccccc1)NCc1ccccc1[N+](=O)[O-]`, the inhibition in test [1] amounted to 2.1%.

Consider `O=C(NCc1cccc([N+](=O)[O-])c1)NCc1cccc(-c2cccc([N+](=O)[O-])c2)n1`, for which, in [1], the inhibition was determined as 40%.

`O=C(NCc1ccccc1)NCc1ccc(-c2ccc([N+](=O)[O-])cc2)o1`: the inhibition in test [1] was found to be 21.4%. Further, the Activity in the test on Rattus norvegicus [2] is recorded as 12.5%; in the test on Rattus norvegicus [3], 18.8%.

`CCc1ccc(CCOc2ccc(CC3SC(=O)NC3=O)cc2)nc1` (stereo unspecified) [PIOGLITAZONE]: the Efficacy with Mus musculus [16] was 12.6%; with Mus musculus [17], 64.7%; with Mus musculus [18], 40.8%; in the test with Mus musculus [19], 11.1%; with Mus musculus [21], 9.17%; in the test on Mus musculus [22], 70.3%. The Efficacy in the test with Mus musculus [23] was determined as 46.1%; with Mus musculus [25], 52.9%. The “fold change (FC)” value with Mus musculus [20] worked out at 1.37. Moreover, in the test on Mus musculus [24], the outcome was Active.

As for `COc1cc(OC)c(CNC(=O)NCc2ccccc2)c(OC)c1`, in [1], the inhibition was found to be 78.8%. Also, the Activity with Rattus norvegicus [2] was 16.1%; with Rattus norvegicus [3], 18.6%. Further, in [4], the IC50 turned out to be 7.6 µM.

For `COc1cc(CNC(=O)NCc2cccc([N+](=O)[O-])c2)cc(OC)c1`, the inhibition in test [1] was determined as 2.81%.

Turning to `COc1cc(CNC(=O)NCc2ccccc2)ccc1O`, the inhibition in test [1] turned out to be 14.9%.

Take `COc1ccc(CNC(=O)NCc2cccc([N+](=O)[O-])c2)cc1`: in test [1], the inhibition is 2.85%.

As for `O=C(NCc1ccccc1)NCc1c[nH]c2ccc(Cl)cc12`, the inhibition in [1] was determined as 19%.

With `COc1cc(Cl)c(CNC(=O)NCc2cccc([N+](=O)[O-])c2)c(Cl)c1OC`, the inhibition in [1] came to 56.6%. For the same compound, the Activity in the test on Rattus norvegicus [2] was determined as 7.26%; with Rattus norvegicus [3], 2.54%. The IC50 in test [4] was 9.91 µM.
